Source: ChEMBL document CHEMBL1909046, “DrugMatrix in vitro pharmacology data”
*1 amine or outer side, *2 acyl side, *3 side chain or, on linkers, in order; H or OH if unused. Where a SMILES comes first, the peptide text is derived from it. Bridges are numbered along the chain shown (N, C = ends). Roman numbers before positions name the chains, in order. [ ]: non-standard residue; d: D form. Actinocin(1to9) = Cc1c2oc3c(C)ccc(C(=O)[*:2])c3nc-2c(C(=O)[*:1])c(N)c1=O; NMeV = CN[C@H](C(=O)O)C(C)C; Sar = CNCC(=O)O

Columns and labels:
[1] = target: C-C chemokine receptor type 2 (Homo sapiens, UniProt P41597); type: cell membranes, CHO-K1, Membrane; conditions: cho-k1; note: in other assays of this panel Not Active means under 50% inhibition at 10 µM
Chain of C-C chemokine receptor type 2 (P41597 whole entry): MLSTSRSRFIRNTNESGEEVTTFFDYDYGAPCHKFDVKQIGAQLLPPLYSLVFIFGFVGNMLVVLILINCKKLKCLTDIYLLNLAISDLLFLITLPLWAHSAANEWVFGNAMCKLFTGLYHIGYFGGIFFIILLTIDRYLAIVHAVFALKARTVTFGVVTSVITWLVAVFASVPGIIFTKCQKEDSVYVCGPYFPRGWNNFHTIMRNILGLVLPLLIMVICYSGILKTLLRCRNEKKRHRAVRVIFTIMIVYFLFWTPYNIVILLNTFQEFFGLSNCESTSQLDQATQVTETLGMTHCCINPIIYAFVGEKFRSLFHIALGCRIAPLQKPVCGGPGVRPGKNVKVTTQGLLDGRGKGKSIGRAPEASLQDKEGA

Glucocorticoid receptor = target: T1, Glucocorticoid receptor (Homo sapiens, UniProt P04150); conditions: hela s3; note: in other assays of this panel Not Active means under 50% inhibition at 10 µM
T1 sequence (P04150 whole entry): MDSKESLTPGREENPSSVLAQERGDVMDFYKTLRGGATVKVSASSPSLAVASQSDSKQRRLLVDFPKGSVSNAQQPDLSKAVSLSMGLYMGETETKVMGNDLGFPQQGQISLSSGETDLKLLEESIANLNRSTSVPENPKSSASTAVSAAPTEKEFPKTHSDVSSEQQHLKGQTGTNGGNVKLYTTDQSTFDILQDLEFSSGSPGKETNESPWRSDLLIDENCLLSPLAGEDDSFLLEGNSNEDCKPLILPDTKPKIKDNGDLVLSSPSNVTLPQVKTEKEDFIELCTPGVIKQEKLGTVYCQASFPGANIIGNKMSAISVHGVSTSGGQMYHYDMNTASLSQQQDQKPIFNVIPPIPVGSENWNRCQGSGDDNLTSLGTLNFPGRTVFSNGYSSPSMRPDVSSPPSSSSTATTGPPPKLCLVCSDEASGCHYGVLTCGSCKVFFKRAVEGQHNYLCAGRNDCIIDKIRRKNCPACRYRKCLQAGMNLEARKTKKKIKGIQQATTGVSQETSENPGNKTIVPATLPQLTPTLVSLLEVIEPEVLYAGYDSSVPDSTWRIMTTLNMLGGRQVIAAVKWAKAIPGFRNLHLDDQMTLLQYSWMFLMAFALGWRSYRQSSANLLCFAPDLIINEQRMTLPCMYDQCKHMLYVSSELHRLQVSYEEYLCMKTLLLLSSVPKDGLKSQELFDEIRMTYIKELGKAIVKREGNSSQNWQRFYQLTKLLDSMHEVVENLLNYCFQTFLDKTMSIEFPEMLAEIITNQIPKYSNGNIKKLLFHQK

Neutrophil elastase = target: T2, Neutrophil elastase (Homo sapiens, UniProt P08246); type: tissue-based;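 note: inhibition of neutrophil elastase enzyme activity, measured with a p-nitroanilide-linked peptide substrate; in other assays of this panel Not Active means under 50% inhibition at 10 µM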
T2 sequence (P08246 whole entry): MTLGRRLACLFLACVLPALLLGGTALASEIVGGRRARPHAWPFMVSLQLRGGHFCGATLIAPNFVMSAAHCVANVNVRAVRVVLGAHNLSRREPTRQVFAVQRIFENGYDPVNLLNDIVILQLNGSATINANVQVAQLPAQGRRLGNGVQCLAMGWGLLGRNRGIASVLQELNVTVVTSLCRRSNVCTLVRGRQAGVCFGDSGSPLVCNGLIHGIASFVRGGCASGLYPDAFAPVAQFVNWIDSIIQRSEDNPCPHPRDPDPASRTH

[2] = target: T3, Type-2 angiotensin II receptor (Homo sapiens, UniProt P50052); type: cell-based; conditions: cho-k1; note: in other assays of this panel Not Active means under 50% inhibition at 10 µM
T3 sequence (P50052 whole entry): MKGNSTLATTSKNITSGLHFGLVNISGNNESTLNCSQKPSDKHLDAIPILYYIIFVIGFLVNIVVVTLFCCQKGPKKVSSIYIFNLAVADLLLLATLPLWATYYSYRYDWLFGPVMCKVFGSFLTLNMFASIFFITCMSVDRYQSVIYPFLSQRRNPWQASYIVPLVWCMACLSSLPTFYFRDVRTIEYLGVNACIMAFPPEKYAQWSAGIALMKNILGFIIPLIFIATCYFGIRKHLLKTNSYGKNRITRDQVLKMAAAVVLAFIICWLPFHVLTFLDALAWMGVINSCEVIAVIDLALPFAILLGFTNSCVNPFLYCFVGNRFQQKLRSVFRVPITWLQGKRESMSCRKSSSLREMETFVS

Calcitonin receptor = target: T4, Calcitonin receptor (Homo sapiens, UniProt P30988); type: cell membranes, Membrane; conditions: t47d; note: in other assays of this panel Not Active means under 50% inhibition at 10 µM
T4 sequence (P30988 whole entry): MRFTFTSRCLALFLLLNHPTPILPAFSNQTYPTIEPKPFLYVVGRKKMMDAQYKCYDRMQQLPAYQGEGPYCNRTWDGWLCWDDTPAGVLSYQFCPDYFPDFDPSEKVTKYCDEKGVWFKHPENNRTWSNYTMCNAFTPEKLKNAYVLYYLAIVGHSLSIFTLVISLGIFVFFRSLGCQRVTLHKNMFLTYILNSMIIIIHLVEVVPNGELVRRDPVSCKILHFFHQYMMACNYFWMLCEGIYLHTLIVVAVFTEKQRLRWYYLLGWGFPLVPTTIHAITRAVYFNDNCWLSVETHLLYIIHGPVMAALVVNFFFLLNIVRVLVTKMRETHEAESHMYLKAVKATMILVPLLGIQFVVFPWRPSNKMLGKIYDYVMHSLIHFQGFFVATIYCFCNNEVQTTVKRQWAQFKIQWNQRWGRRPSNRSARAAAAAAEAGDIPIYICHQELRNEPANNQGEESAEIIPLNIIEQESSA

[3] = DRUGMATRIX: Serotonin (5-Hydroxytryptamine) 5-HT3 radioligand binding (ligand: [3H] GR-65630); type: cell membranes, Membrane; conditions: hek293; Not Active = under 50% inhibition at 10 µM
[4] = DRUGMATRIX: Glutamate, Kainate radioligand binding (ligand: [3H] Kainic acid); type: cell membranes, Rattus norvegicus, Wistar, Brain, Membrane; conditions: Not Active = under 50% inhibition at 10 µM
D(1A) dopamine receptor = D(1A) dopamine receptor (Homo sapiens, UniProt P21728); test: DRUGMATRIX: Dopamine D1 radioligand binding (ligand: [3H] SCH-23390); type: cell membranes, CHO, Membrane; conditions: Not Active = under 50% inhibition at 10 µM
Chain of D(1A) dopamine receptor (P21728 whole entry): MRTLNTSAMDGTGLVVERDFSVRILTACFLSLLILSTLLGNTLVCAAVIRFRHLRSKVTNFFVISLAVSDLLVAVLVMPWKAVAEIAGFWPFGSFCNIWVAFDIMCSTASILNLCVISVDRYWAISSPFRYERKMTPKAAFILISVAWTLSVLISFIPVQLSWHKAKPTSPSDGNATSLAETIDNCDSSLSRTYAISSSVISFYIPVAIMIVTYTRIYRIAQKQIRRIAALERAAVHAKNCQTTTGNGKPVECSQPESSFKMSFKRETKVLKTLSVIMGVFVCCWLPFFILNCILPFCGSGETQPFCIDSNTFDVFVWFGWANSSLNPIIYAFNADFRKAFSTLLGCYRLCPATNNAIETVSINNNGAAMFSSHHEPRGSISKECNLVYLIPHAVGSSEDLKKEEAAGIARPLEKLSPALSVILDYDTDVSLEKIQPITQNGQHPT

Nc1ncn([C@@H]2O[C@H](CO)[C@@H](O)[C@H]2O)c(=O)n1 [AZACITIDINE]
Not Active: IC50 [1] | IC50 (Glucocorticoid receptor) | IC50 (Neutrophil elastase) | IC50 [2] | IC50 (Calcitonin receptor) | IC50 [3] | Ki [3] | IC50 [4] | Ki [4] | IC50 (D(1A) dopamine receptor; cho)

CN(C)C(=O)Oc1cc(OC(=O)N(C)C)cc(C(O)CNC(C)(C)C)c1 (stereo unspecified) [BAMBUTEROL]
Not Active: IC50 [1] | IC50 (Glucocorticoid receptor) | IC50 (Neutrophil elastase) | IC50 [2] | IC50 (Calcitonin receptor) | IC50 [3] | Ki [3] | IC50 [4] | Ki [4] | IC50 (D(1A) dopamine receptor; cho)

c1ccc2c(c1)c1cccc3ccc4cccc2c4c31 [BENZO[E]PYRENE]
Not Active: IC50 [1] | IC50 (Glucocorticoid receptor) | IC50 (Neutrophil elastase) | IC50 [2] | IC50 (Calcitonin receptor) | IC50 [3] | Ki [3] | IC50 [4] | Ki [4] | IC50 (D(1A) dopamine receptor; cho)

CNCCc1ccccn1 [BETAHISTINE]
Not Active: IC50 [1] | IC50 (Glucocorticoid receptor) | IC50 (Neutrophil elastase) | IC50 [2] | IC50 (Calcitonin receptor) | IC50 [3] | Ki [3] | IC50 [4] | Ki [4] | IC50 (D(1A) dopamine receptor; cho)

CC(NC(C)(C)C)C(=O)c1cccc(Cl)c1 (stereo unspecified) [BUPROPION]
Not Active: IC50 [1] | IC50 (Glucocorticoid receptor) | IC50 (Neutrophil elastase) | IC50 [2] | IC50 (Calcitonin receptor) | IC50 [3] | Ki [3] | IC50 [4] | Ki [4] | IC50 (D(1A) dopamine receptor; cho)

CN(Cc1ccc(C(C)(C)C)cc1)Cc1cccc2ccccc12 [BUTENAFINE]
Not Active: IC50 [1] | IC50 (Glucocorticoid receptor) | IC50 (Neutrophil elastase) | IC50 [2] | IC50 (Calcitonin receptor) | IC50 [3] | Ki [3] | IC50 [4] | Ki [4] | IC50 (D(1A) dopamine receptor; cho)

C[C@H](CS)C(=O)N1CCC[C@H]1C(=O)O [CAPTOPRIL]
Not Active: IC50 [1] | IC50 (Glucocorticoid receptor) | IC50 (Neutrophil elastase) | IC50 [2] | IC50 (Calcitonin receptor) | IC50 [3] | Ki [3] | IC50 [4] | Ki [4] | IC50 (D(1A) dopamine receptor; cho)

Cc1ccc(-c2cc(C(F)(F)F)nn2-c2ccc(S(N)(=O)=O)cc2)cc1 [CELECOXIB]
Not Active: IC50 [1] | IC50 (Glucocorticoid receptor) | IC50 (Neutrophil elastase) | IC50 [2] | IC50 (Calcitonin receptor) | IC50 [3] | Ki [3] | IC50 [4] | Ki [4]
28 µM: IC50 (D(1A) dopamine receptor; read-out: IC50)
14 µM: Ki (D(1A) dopamine receptor; read-out: Ki)

C[C@H](CCC(=O)O)[C@H]1CC[C@H]2[C@@H]3[C@H](O)C[C@@H]4C[C@H](O)CC[C@]4(C)[C@H]3C[C@H](O)[C@]12C [CHOLIC ACID]
Not Active: IC50 [1] | IC50 (Glucocorticoid receptor) | IC50 (Neutrophil elastase) | IC50 [2] | IC50 (Calcitonin receptor) | IC50 [3] | Ki [3] | IC50 [4] | Ki [4] | IC50 (D(1A) dopamine receptor; cho)

Cc1cc(C2CCCCC2)n(O)c(=O)c1 [CICLOPIROX]
Not Active: IC50 [1] | IC50 (Glucocorticoid receptor) | IC50 (Neutrophil elastase) | IC50 [2] | IC50 (Calcitonin receptor) | IC50 [3] | Ki [3] | IC50 [4] | Ki [4] | IC50 (D(1A) dopamine receptor; cho)

CC1=C2C(=CO[C@H](C)[C@H]2C)C(O)=C(C(=O)O)C1=O [CITRININ]
Not Active: IC50 [1] | IC50 (Glucocorticoid receptor) | IC50 (Neutrophil elastase) | IC50 [2] | IC50 (Calcitonin receptor) | IC50 [3] | Ki [3] | IC50 [4] | Ki [4] | IC50 (D(1A) dopamine receptor; cho)

CC(C)(Oc1ccc(Cl)cc1)C(=O)O [CLOFIBRIC ACID]
Not Active: IC50 [1] | IC50 (Glucocorticoid receptor) | IC50 (Neutrophil elastase) | IC50 [2] | IC50 (Calcitonin receptor) | IC50 [3] | Ki [3] | IC50 [4] | Ki [4] | IC50 (D(1A) dopamine receptor; cho)

Clc1cccc(Cl)c1NC1=NCCN1 [CLONIDINE]
Not Active: IC50 [1] | IC50 (Glucocorticoid receptor) | IC50 (Neutrophil elastase) | IC50 [2] | IC50 (Calcitonin receptor) | IC50 [3] | Ki [3] | IC50 [4] | Ki [4] | IC50 (D(1A) dopamine receptor; cho)

Cc1cc(C(C#N)c2ccc(Cl)cc2)c(Cl)cc1NC(=O)c1cc(I)cc(I)c1O (stereo unspecified) [CLOSANTEL]
Not Active: IC50 [1] | IC50 (Glucocorticoid receptor) | IC50 (Neutrophil elastase) | IC50 [2] | IC50 (Calcitonin receptor) | IC50 [3] | Ki [3] | IC50 [4] | Ki [4] | IC50 (D(1A) dopamine receptor; cho)

Cc1onc(-c2ccccc2Cl)c1C(=O)N[C@@H]1C(=O)N2[C@@H]1SC(C)(C)[C@@H]2C(=O)O [CLOXACILLIN]
Not Active: IC50 [1] | IC50 (Glucocorticoid receptor) | IC50 (Neutrophil elastase) | IC50 [2] | IC50 (Calcitonin receptor) | IC50 [3] | Ki [3] | IC50 [4] | Ki [4] | IC50 (D(1A) dopamine receptor; cho)

Cc1c2oc3c(C)ccc(C(=O)N[C@@H]4C(=O)N[C@H](C(C)C)C(=O)N5CCC[C@H]5C(=O)N(C)CC(=O)N(C)[C@@H](C(C)C)C(=O)O[C@@H]4C)c3nc-2c(C(=O)N[C@@H]2C(=O)N[C@H](C(C)C)C(=O)N3CCC[C@H]3C(=O)N(C)CC(=O)N(C)[C@@H](C(C)C)C(=O)O[C@@H]2C)c(N)c1=O [DACTINOMYCIN] (I: T[dV]P[Sar][NMeV] / II: T[dV]P[Sar][NMeV]; ester I:1-I:C, II:1-II:C; linker I:N-II:N via Actinocin(1to9))
Not Active: IC50 [1] | IC50 (Glucocorticoid receptor) | IC50 (Neutrophil elastase) | IC50 [2] | IC50 (Calcitonin receptor) | IC50 [3] | Ki [3] | IC50 [4] | Ki [4] | IC50 (D(1A) dopamine receptor; cho)

Cc1c(O)c(=O)ccn1C [DEFERIPRONE]
Not Active: IC50 [1] | IC50 (Glucocorticoid receptor) | IC50 (Neutrophil elastase) | IC50 [2] | IC50 (Calcitonin receptor) | IC50 [3] | Ki [3] | IC50 [4] | Ki [4] | IC50 (D(1A) dopamine receptor; cho)

C[C@H]1O[C@@H](O[C@H]2[C@@H](O)C[C@H](O[C@H]3[C@@H](O)C[C@H](O[C@H]4CC[C@@]5(C)[C@H](CC[C@@H]6[C@@H]5C[C@@H](O)[C@]5(C)[C@@H](C7=CC(=O)OC7)CC[C@]65O)C4)O[C@@H]3C)O[C@@H]2C)C[C@H](O)[C@@H]1O [DIGOXIN]
Not Active: IC50 [1] | IC50 (Glucocorticoid receptor) | IC50 (Neutrophil elastase) | IC50 [2] | IC50 (Calcitonin receptor) | IC50 [3] | Ki [3] | IC50 [4] | Ki [4] | IC50 (D(1A) dopamine receptor; cho)
